Publication PMC10037464, “Chemical Knockdown of Phosphorylated p38 Mitogen-Activated Protein Kinase (MAPK) as a Novel Approach for the Treatment of Alzheimer′s Disease” (ACS Central Science, 2023)

Legend:
[1] = target: T1, p38 MAPK, active phosphomimetic mutant (Homo sapiens, UniProt Q16539, D176A); test: degradation of expressed mutant in HEK293T cells (immunoblot); assay type: cell-based
T1 construct: gene MAPK14; p38 active form expressed in HEK293T cells

[2] = target: T2, phosphorylated p38 MAPK (p-p38) (Homo sapiens, UniProt Q16539); test: CRBN- and proteasome-dependent degradation in cells (immunoblot DC50); assay type: cell-based
T2 construct: gene MAPK14; phosphorylated p38 in HEK293T cells
T2 sequence (Q16539 2-360): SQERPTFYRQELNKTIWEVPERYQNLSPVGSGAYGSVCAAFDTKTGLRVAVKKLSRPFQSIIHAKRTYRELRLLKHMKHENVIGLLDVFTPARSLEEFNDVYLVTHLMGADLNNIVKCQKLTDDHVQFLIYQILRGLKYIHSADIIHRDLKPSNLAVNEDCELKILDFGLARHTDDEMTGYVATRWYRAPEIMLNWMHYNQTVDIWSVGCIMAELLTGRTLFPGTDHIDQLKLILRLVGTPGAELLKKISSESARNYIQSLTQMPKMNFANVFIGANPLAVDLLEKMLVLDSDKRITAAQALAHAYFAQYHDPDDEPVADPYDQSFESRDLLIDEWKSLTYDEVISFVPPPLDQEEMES
T2 sequence (Q96SW2 whole entry partner): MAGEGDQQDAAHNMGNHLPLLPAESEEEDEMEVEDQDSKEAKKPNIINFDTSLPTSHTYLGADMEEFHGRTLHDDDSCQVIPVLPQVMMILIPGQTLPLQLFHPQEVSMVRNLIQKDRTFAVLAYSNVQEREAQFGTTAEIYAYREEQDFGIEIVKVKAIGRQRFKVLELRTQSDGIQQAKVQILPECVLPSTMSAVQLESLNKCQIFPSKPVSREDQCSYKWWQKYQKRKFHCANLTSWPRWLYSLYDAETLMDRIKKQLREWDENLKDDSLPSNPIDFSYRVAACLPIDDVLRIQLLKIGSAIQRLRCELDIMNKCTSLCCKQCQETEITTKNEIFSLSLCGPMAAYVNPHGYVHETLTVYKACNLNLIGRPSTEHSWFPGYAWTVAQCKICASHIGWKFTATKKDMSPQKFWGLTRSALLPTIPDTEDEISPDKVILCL

T1 sequence (Q16539 2-360 D176A): as the sequence (Q16539 2-360) above, with D175A counted along it

- DC50 [2]: 93 nM
SMILES: Cc1ccc(C(=O)NC2CC2)cc1-c1ccc(C(=O)c2ccc(OCCOCCOC(=O)Nc3cccc4c3C(=O)N(C3CCC(=O)NC3=O)C4=O)cc2)cc1 (centres unmarked) [compound 2, PRZ-18002]
- degradation of expressed mutant in HEK293T cells (immunoblot) [1]: significant reduction of active p38 mutant (D176A) in preference to wild-type p38
